Laboratory results published in patent publication US20220387375A1, “TRPV1 ACTIVATION-MODULATING COMPLEX MIXTURES OF CANNABINOIDS AND/OR TERPENES” (GBS Global Biopharma, Inc., priority 2018, published 2022).
“Also recorded” adds a separate entry of the source. Like-named read-outs stand apart in the source and are kept apart here.

Biological target: T1, TRPV1 (Rattus norvegicus, UniProt O35433)
T1 construct: FLAG; expressed in transfected cells
Assay: Whole-cell patch clamp of TRPV1 currents in HEK293 cells overexpressing TRPV1 (HEK293-V1)
Assay type: cell-based
Conditions: for inward current induced: cannabinoid at 50 (FIGS. 3A, 4A, 6A, 7A), applied at data point 60; for time course of induced TRPV1 current (sustained or inactivating): cannabinoid at 50, 5 μM myrcene or 1 μM capsaicin; for current development and inactivation: constant external calcium, internal Ca2+ 0 nM, 180 nM, 620 nM, FCa (FIGS. 23, 24); for Max I amplitude: 120 s, Ca 1 mM external, unbuffered internal calcium; for attainment of the pore-dilated state: 50 μM, induction time 25 hours (FIGS. 37-40C)
Procedure: HEK TRexTRPV1 were cultured in DMEM, 10% Fetal Bovine Serum, 2 mM Lglutamine, 10 μg/ml Blasticidin (Calbiochem, San Diego Calif.), 400 μg/ml Zeocin (InvivoGen, San Diego Calif.), where indicated transgene expression was induced using 1 μg/ml Tetracycline for 16-24 hrs. Unless otherwise indicated, basal expression of TRPV1 without induction was sufficient for these studies, and comparisons were made to untransfected HEK where needed. HEKTRex293 over-expressing human TRPV2, human TRPA1 and human TRPM8 were obtained from SB Drug Discovery (Glasgow, Scotland) and cultured as described above. The cannabinoids and terpenes were assayed in HEK cells that have been transfected with the TRPV1 ion channel protein. These cells are called HEK293-V1 cells.
This technique is used to study ionic currents from HEK293-V1. The voltage across the cell membrane is controlled and the ionic currents associated with changes in voltage are measured. A micropipette tip is pulled to a few micrometers in diameter followed by heating the tip to produce a smooth surface that assists in forming a high resistance seal with the cell membrane. To obtain this high resistance seal, the micropipette is pressed against a cell membrane and suction is applied. The membrane then fuses onto the glass surface creating a high resistance in the gigaohm range. This makes it possible to isolate electronically the ionic currents measured across the membrane patch or across the entire cell.
Patch-clamp experiments were performed in the whole-cell configuration at 21-25° C. Patch pipettes had resistances of 2-3 MΩ. Data was acquired with PatchMaster software (HEKA, Lambrecht, Germany), controlling an EPC-9 amplifier. Voltage ramps of 50 ms spanning the voltage range from −100 to 100 mV were delivered from a holding potential of 0 mV at a rate of 0.5 Hz over a period of 500 ms to 180 seconds (3 minutes). Voltages were corrected for a liquid junction potential of 10 mV. Currents were filtered at 2.9 kHz and digitized at 100 μs intervals. Capacitive currents were determined and corrected before each voltage ramp. The development of currents for a given potential was extracted from individual ramp current records by measuring the current amplitudes at voltages of −80 mV and +80 mV. Data were analyzed with FitMaster (HEKA, Lambrecht, Germany), and IgorPro (WaveMetrics, Lake Oswego, Oreg., USA). Where applicable, statistical errors of averaged data are given as mean±s.e.m with n determinations. The activated current amplitudes are analyzed by nA rather than pA/pF. […] Also the cell size selected for patching was in the 9 -12 pF range.
For patch-clamp recordings, HEK293 cells were kept in a standard sodium-based external Ringer's solution containing (mM): 140 NaCl, 1 CaCl2, 2 MgCl2, 2.8 KCl, 11 glucose, 10 HEPES-NaOH with a pH of 7.2 and osmolarity of 300 mOsmol. To assess the effects of external Calcium (Ca) on TRPV1 inactivation kinetics, Ca at different levels were tested including 0, 1, and 3 mM. In Experiments with zero external Ca, EGTA 10 mM was added and the Na concentration was lowered to 130 mM to maintain standard osmotic conditions at 300 mOsmol. For rapid external solution application and exchanges we used the SmartSquirt delivery system (Auto-Mate Scientific, San Francisco Calif., USA) that included four cryo tubes allowing for solution exchanges within one patch. This system included a ValveLink TTL interface between the electronic valves and the EPC10 amplifier (HEKA, Lambrecht, Germany). This electronic configuration allowed for programmable solution changes via the PatchMaster software (HEKA, Lambrecht, Germany).

[1] = CBD-induced current, internal Ca2+ 0, external Ca2+ 0 mM
[2] = CBD-induced current, internal Ca2+ 0, external Ca2+ 1 mM
[3] = CBD-induced current, internal Ca2+ 0, external Ca2+ 3 mM
[4] = CBD-induced current, internal Ca2+ 180 nM, external Ca2+ 0 mM
[5] = CBD-induced current, internal Ca2+ 180 nM, external Ca2+ 1 mM
[6] = CBD-induced current, internal Ca2+ 180 nM, external Ca2+ 3 mM
[7] = CBD-induced current, internal Ca2+ >620 nM (free Ca2+), external Ca2+ 0 mM
[8] = CBD-induced current, internal Ca2+ >620 nM (free Ca2+), external Ca2+ 1 mM
[9] = CBD-induced current, internal Ca2+ >620 nM (free Ca2+), external Ca2+ 3 mM
[10] = after cannabinoid at 50 (voltage ramp)
[11] = calculated from Imax per dose, HEK-TRPV1 patch clamp, read-out: EC50 at TRPV1

T1 sequence (O35433 whole entry): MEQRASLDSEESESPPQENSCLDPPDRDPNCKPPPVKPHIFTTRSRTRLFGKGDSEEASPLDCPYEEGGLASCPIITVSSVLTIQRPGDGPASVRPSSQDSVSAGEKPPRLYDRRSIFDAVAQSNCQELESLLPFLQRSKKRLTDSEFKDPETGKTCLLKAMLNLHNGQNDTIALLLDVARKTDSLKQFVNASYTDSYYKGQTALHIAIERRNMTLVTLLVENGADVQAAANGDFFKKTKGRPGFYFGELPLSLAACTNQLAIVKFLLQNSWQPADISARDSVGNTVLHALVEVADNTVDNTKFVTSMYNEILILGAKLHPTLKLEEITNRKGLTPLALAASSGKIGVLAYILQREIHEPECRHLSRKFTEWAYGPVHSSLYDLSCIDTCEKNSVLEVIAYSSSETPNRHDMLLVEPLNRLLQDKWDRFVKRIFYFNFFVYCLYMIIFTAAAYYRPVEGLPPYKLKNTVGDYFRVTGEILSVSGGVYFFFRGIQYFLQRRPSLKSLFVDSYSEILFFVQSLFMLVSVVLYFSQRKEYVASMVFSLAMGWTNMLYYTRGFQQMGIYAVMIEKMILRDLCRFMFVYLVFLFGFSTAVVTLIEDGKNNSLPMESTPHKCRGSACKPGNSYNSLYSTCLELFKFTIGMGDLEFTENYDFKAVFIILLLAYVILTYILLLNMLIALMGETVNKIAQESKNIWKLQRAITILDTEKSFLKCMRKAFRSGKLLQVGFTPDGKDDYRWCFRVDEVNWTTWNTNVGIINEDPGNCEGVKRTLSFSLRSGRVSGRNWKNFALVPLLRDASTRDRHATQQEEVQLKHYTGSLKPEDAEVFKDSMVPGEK

`C=C(C)[C@@H]1CCC(C)=C[C@H]1c1c(O)cc(CCCCC)cc1O` [CBD, Cannabidiol] was tested, and the EC50 was 30 µM, the “type of TRPV1 current recorded” value (CBD 30 μM, Ca 0 internally and externally) was “outwardly rectifying current” and the “transition to the pore-dilated state” value (CBD up to 150 μM, induction times 0-25 hours, currents about 10 nA) was “no transition to the pore-dilated state”. For the same compound, the “Max rate of activation” value (CBD-induced current (30 μM, FIG. 22), internal Ca2+ 0, external Ca2+ 0 mM) was 1.1% per S, the “Max rate of activation” value (CBD-induced current (30 μM, FIG. 22), internal Ca2+ 0, external Ca2+ 1 mM) was 1.9% per S and the “Max rate of activation” value (CBD-induced current (30 μM, FIG. 22), internal Ca2+ 0, external Ca2+ 3 mM) was 3% per S. For the same compound, the Rate of inactivation [1] was 0.41% per S, the “Time to max amplitude” value [1] was 136 S and the Rate of inactivation [2] was 0.82% per S. The “Time to max amplitude” value [2] was 94 S, the Rate of inactivation [3] was 0.94% per S and the “Time to max amplitude” value [3] was 82 S. The “Max rate of activation” value [4] was 1.6% per S, the Rate of inactivation [4] was 0.67% per S and the “Time to max amplitude” value [4] was 108 S. The “Max rate of activation” value [5] was 1.6% per S, the Rate of inactivation [5] was 0.71% per S and the “Time to max amplitude” value [5] was 116 S. The “Max rate of activation” value [6] was 2.4% per S, the Rate of inactivation [6] was 0.72% per S and the “Time to max amplitude” value [6] was 92 S. The “Max rate of activation” value [7] was 0.83% per S, the Rate of inactivation [7] was 0.49% per S and the “Time to max amplitude” value [7] was 160 S. The “Max rate of activation” value [8] was 1.5% per S, the Rate of inactivation [8] was 1.1% per S and the “Time to max amplitude” value [8] was 120 S. The “Max rate of activation” value [9] was 2.7% per S, the Rate of inactivation [9] was 1% per S and the “Time to max amplitude” value [9] was 88 S. For the same compound, the “IV relationship / TRPV1 channel state” value [10] was “outwardly-rectifying IV curve consistent with un-dilated TRPV1 (state 1)”, the inward current induced was 4-6 nA and the “time course of induced TRPV1 current (sustained or inactivating)” value (“time course of induced TRPV1 current” below) was “sustained”. For the same compound, the “current development and inactivation” value was “gradual current development, which inactivated only when internal calcium is buffered above zero”, the Rate of inactivation (dose 10 micromolar) was 0 dpsec^−1 and the Time to max (dose 10 micromolar) was 178 s. For the same compound, the “Max I amplitude” value (dose 10 micromolar) was 0.8 nA, the Rate of inactivation (dose 30 micromolar) was 0 dpsec^−1 and the Time to max (dose 30 micromolar) was 180 s. The “Max I amplitude” value (dose 30 micromolar) was 2.2 nA, the Rate of inactivation (dose 50 micromolar) was “.02 dpsec^−1” and the Time to max (dose 50 micromolar) was 130 s. For the same compound, the “Max I amplitude” value (dose 50 micromolar) was 1.6 nA, the Rate of inactivation (dose 150 micromolar) was “.042 dpsec^−1” and the Time to max (dose 150 micromolar) was 96 s. The “Max I amplitude” value (dose 150 micromolar) was 3.5 nA.
With `CCCCCc1cc(O)c2c(c1)OC(C)(C)c1ccc(C)cc1-2` [CBN, Cannabinol] the EC50 was 36 µM, the “inward and outward current magnitude compared to 50 μM CBN” value (10 μM CBN) was “greater inward and outward current magnitude” and the “IV relationship / TRPV1 channel state” value (after 10 μM CBN) was “becomes more linear; also recorded: partial state transition from state 1 to state 2”. For the same compound, the “IV relationship / TRPV1 channel state” value [10] was “outwardly-rectifying IV curve consistent with un-dilated TRPV1 (state 1)”, the inward current induced was 0.5-2 nA and the “time course of induced TRPV1 current” value was “rapidly inactivating”. The “current development and inactivation” value was “activated quickly, but rapidly inactivated with a slower kinetic profile”, the Rate of inactivation (dose 10 micromolar) was 0 dpsec^−1 and the Time to max (dose 10 micromolar) was 174 s. The “Max I amplitude” value (dose 10 micromolar) was 0.4 nA, the Rate of inactivation (dose 30 micromolar) was 0 dpsec^−1 and the Time to max (dose 30 micromolar) was 176 s. For the same compound, the “Max I amplitude” value (dose 30 micromolar) was 0.6 nA, the Rate of inactivation (dose 50 micromolar) was “.010 dpsec^−1” and the Time to max (dose 50 micromolar) was 120 s. For the same compound, the “Max I amplitude” value (dose 50 micromolar) was 1.5 nA, the Rate of inactivation (dose 150 micromolar) was “.019 dpsec^−1” and the Time to max (dose 150 micromolar) was 82 s. For the same compound, the “Max I amplitude” value (dose 150 micromolar) was 1.8 nA.
`CCCCCc1cc(O)c(C/C=C(\C)CCC=C(C)C)c(O)c1` [CBG, Cannabigerol] was tested, and the “attainment of the pore-dilated state” value was “lack of attainment of the pore-dilated state”, the “IV relationship / TRPV1 channel state” value [10] was “outwardly-rectifying IV curve consistent with un-dilated TRPV1 (state 1)” and the EC50 [11] was 19 µM. For the same compound, the inward current induced was 4-5 nA, the “time course of induced TRPV1 current” value was “sustained” and the Rate of inactivation (dose 10 micromolar) was 0 dpsec^−1. The Time to max (dose 10 micromolar) was 120 s, the “Max I amplitude” value (dose 10 micromolar) was 0.2 nA and the Rate of inactivation (dose 30 micromolar) was “.007 dpsec^−1”. For the same compound, the Time to max (dose 30 micromolar) was 94 s, the “Max I amplitude” value (dose 30 micromolar) was 0.6 nA and the Rate of inactivation (dose 50 micromolar) was “.008 dpsec^−1”. For the same compound, the Time to max (dose 50 micromolar) was 96 s, the “Max I amplitude” value (dose 50 micromolar) was 0.7 nA and the Rate of inactivation (dose 150 micromolar) was “.014 dpsec^−1”. The Time to max (dose 150 micromolar) was 92 s and the “Max I amplitude” value (dose 150 micromolar) was 0.9 nA.
With `C=C(C)[C@@H]1CCC(C)=C[C@H]1c1c(O)cc(CCC)cc1O` [CBDV, Cannabidivarin] the “attainment of the pore-dilated state” value was “lack of attainment of the pore-dilated state”, the “IV relationship / TRPV1 channel state” value [10] was “outwardly-rectifying IV curve consistent with un-dilated TRPV1 (state 1)” and the EC50 [11] was 56 µM. The inward current induced was 2-3 nA, the “time course of induced TRPV1 current” value was “sustained” and the Rate of inactivation (dose 10 micromolar) was 0 dpsec^−1. For the same compound, the Time to max (dose 10 micromolar) was 148 s, the “Max I amplitude” value (dose 10 micromolar) was 0.5 nA and the Rate of inactivation (dose 30 micromolar) was “.013 dpsec^−1”. For the same compound, the Time to max (dose 30 micromolar) was 136 s, the “Max I amplitude” value (dose 30 micromolar) was 1.5 nA and the Rate of inactivation (dose 50 micromolar) was “.009 dpsec^−1”. The Time to max (dose 50 micromolar) was 82 s, the “Max I amplitude” value (dose 50 micromolar) was 0.9 nA and the Rate of inactivation (dose 150 micromolar) was “.14 dpsec^−1”. The Time to max (dose 150 micromolar) was 62 s and the “Max I amplitude” value (dose 150 micromolar) was 3.9 nA.
